Source: patent US12527814B2, “Treatment of an ocular infection, composition and methods thereof” (priority 2019, dated 2026)
Read-outs that look alike come from different tables or passages of the source.

Columns and labels:
Tsukamurella = details: literature refs 3, 12; cited from earlier work
T. pulmonis-PW1004 [1] = assay: Treatment of experimental Tsukamurella keratitis in rabbits
Method: 6.4.4 Development of a rabbit model for Tsukamurella keratitis. Bacterial suspensions used to infect rabbits were prepared by culturing T. pulmonis-PW1004 in BHI for 48 h. Eight male NZW rabbits, 1.5-2.0 kg, were inoculated intrastromally as described previously^37. Corneas of 4 rabbits were injected with approximately 10 μl (i.e., 10^6 CFU) of T. pulmonis-PW1004 using a microliter syringe with a 30 G needle. Another 4 rabbit corneas were challenged with plain culture medium as the control. Rabbits were monitored daily for signs of disease. At 24 h PI, rabbit eyes were photographed, evaluated for pathology, and sacrificed. After euthanasia, the corneas of each rabbit were surgically removed for histopathological and immunohistochemical analyses and bacterial enumeration.
6.4.5 Treatment of experimental Tsukamurella keratitis. Efficacy of the two antibiotics, topical 0.5% Cravit® levofloxacin (Santen Pharmaceutical Company, Japan) and 0.02% PHMB (Lonza, Switzerland), for the treatment of Tsukamurella keratitis were evaluated, respectively. Tsukamurella keratitis was first established in 12 NZW rabbits (n=4 per group) using procedures as described above. Infection was allowed to proceed for 24 h before initiation of antibiotic therapy. These 12 NZW rabbits were divided into 3 topical treatment groups: (1) 0.5% levofloxacin, (2) 0.02% PHMB, and (3) saline. Treatment regimens of levofloxacin and PHMB were performed according to Fiscella et al. and Kowalski et al., respectively, with slight modifications^16,17. For the first group of rabbits treated with levofloxacin (n=4), drops (50 μl) of levofloxacin were applied to the affected eyes hourly for 10 doses over 3 days. For the second group of rabbits treated with PHMB (n=4), drops (50 μl) of PHMB were applied to the affected eyes hourly for 8 doses over 3 days. Rabbits in the third control group (n=4) received the same regimen of sterile saline (0.85% NaCl) hourly for 10 doses over 3 days. In addition to these 3 treatment groups, two extra NZW rabbits without infection were used as controls (i.e., mock-infected and mock-treated rabbits), receiving the same regimen of saline for 3 days. One hour after the final instillation of the antibiotics and saline drops, rabbit eyes were photographed, evaluated for pathology, and sacrificed. The treatment efficacy was compared and evaluated by the quantitative culture and histopathological analysis of the infected corneas.
6.4.6 Quantification of Tsukamurella cells. To quantify the number of viable Tsukamurella in the cornea, the cornea harvested from each rabbit was cut into smaller pieces using a sterile scalpel. The corneal pieces were placed into a sterile tube containing 500 μl of PBS (pH 7.2). Each tissue was homogenized, and homogenates were serially diluted 10-fold in PBS (pH 7.2). One hundred microliters of each diluted sample was plated in triplicate on the BHI agar and incubated at 37° C. under aerobic conditions for 48 h. The number of bacteria was determined and expressed as CFU/cornea.
To examine the histopathology of corneal tissues of rabbits challenged with the PW1004-WT and its derivative mutants, excised infected eyes, including the cornea of challenged rabbits, were subjected to histopathological examination. Corneal tissues harvested from the rabbits were fixed in 10% neutral-buffered formalin, embedded in paraffin, and stained with hematoxylin and eosin (H&E) according to Fischer et al.^39.

T. pulmonis-PW1004 [2] = test system: T. pulmonis-PW1004
Method: (§1) 6.4.9 In vitro susceptibility of planktonic cultures of Tsukamurella against contact lens and PHMB solutions. A susceptibility test was performed following the procedures as described in FDA/ISO14729 stand-alone procedure for disinfecting products^13. Briefly, 0.1 ml of 1×10^8 CFUs/ml bacterial suspension from 7 different Tsukamurella species was added into 10 ml each of the 4 commercial contact lens solutions, respectively, and the mixture was incubated at room temperature according to the manufacturer's recommended disinfection time (Table 1). After incubation, a 1-ml aliquot was withdrawn from each mixture and added to 9 ml of Dey-Engley neutralizing broth (Sigma, USA) for 15 min at room temperature for neutralization of the preservative. The mixture was then serially diluted, and 100 μl of each diluted sample was plated in triplicate on the BHI agar for sampling of viable bacteria. P. aeruginosa ATCC27853 was used as a control. The mean logarithmic reduction was calculated. According to the guideline, only a contact lens solution capable of reducing the viability of starting concentration of bacteria by 3-log is defined as satisfactory. All experiments were performed in triplicate and repeated 3 times along with the control strain.

T. tyrosinosolvens-PW899 = test system: T. tyrosinosolvens-PW899
Method: as §1

T. pulmonis-PW1004 [3] = details: for Zone of inhibition: 6 mm disk, 48 h, 37° C.
Description: Disk diffusion assay was initially used to determine the susceptibility of T. pulmonis-PW1004 against various concentrations of PHMB. Briefly, standard paper disks, 6 mm in diameter, impregnated with different dilutions of PHMB (0.0005%, 0.001%, 0.0025%, 0.005%) were placed onto BHI agar plates inoculated with overnight culture of a 0.5 McFarland standard prepared from T. pulmonis-PW1004, following standard procedures^15. Paper disks soaked in 0.85% NaCl were used as the control. Zones of inhibition were measured after 48 h of incubation at 37° C. under aerobic conditions. […] Next, we re-examined the susceptibility of the 4 contact lens solutions against the 7 Tsukamurella species by adjusting the final concentration of PHMB to 0.0025%, following the procedures as described in the previous paragraph.

[4] = 0.02% PHMB topical for 3 days, compared to saline control rabbits
[5] = PHMB 0.005% compared with 0.0025%

O=C(N[C@H](CO)[C@H](O)c1ccc([N+](=O)[O-])cc1)C(Cl)Cl [chloramphenicol]
susceptibility of Tsukamurella to topical antibiotic eye drops (Tsukamurella): generally resistant

polyhexamethylene biguanide [PHMB]
PMN infiltration in corneal stroma and epithelium (T. pulmonis-PW1004 [1]; [4]): less evident | histological examination: stromal edema and capillary formation (T. pulmonis-PW1004 [1]; [4]): lower degree of stromal edema as well as capillary formation | keratitis symptoms, gross appearance (T. pulmonis-PW1004 [1]; [4]): keratitis symptoms became less severe | number of bacteria recovered from the cornea (T. pulmonis-PW1004 [1]; 0.02% PHMB topical, hourly 8 doses over 3 days, started 24 h PI, P<0.01 vs saline): 1.05±0.07 log | corneal perforation (T. pulmonis-PW1004 [1]; 0.02% PHMB topical, whole course of treatment): did not observe corneal perforation | toxicity in rabbit corneal tissues (T. pulmonis-PW1004 [1]; PHMB 0.02% topical): no toxicity | log reduction (T. pulmonis-PW1004 [2]; PHMB 0.0005%): < 3 log | log reduction (T. pulmonis-PW1004 [2]; PHMB 0.001%): < 3 log | log reduction (T. pulmonis-PW1004 [2]; PHMB 0.0025%): 3 log | further reduction of bacterial numbers (T. pulmonis-PW1004 [2]; [5]): could not be further reduced | log reduction (T. tyrosinosolvens-PW899; PHMB 0.0005%): < 3 log | log reduction (T. tyrosinosolvens-PW899; PHMB 0.001%): < 3 log | log reduction (T. tyrosinosolvens-PW899; PHMB 0.0025%): 3 log | further reduction of bacterial numbers (T. tyrosinosolvens-PW899; [5]): could not be further reduced | Zone of inhibition (T. pulmonis-PW1004 [3]; PHMB concentration 0.0005%): 0 mm | Zone of inhibition (T. pulmonis-PW1004 [3]; PHMB concentration 0.001%): 0 mm | Zone of inhibition (T. pulmonis-PW1004 [3]; PHMB concentration 0.0025%): 13 mm | Zone of inhibition (T. pulmonis-PW1004 [3]; PHMB concentration 0.005%): 14 mm | minimal concentration that achieved good efficacy (T. pulmonis-PW1004 [3]; disk diffusion, preliminary results): 0.0025%

C[C@H]1COc2c(N3CCN(C)CC3)c(F)cc3c(=O)c(C(=O)O)cn1c23 [levofloxacin]
corneal perforation and adverse signs (T. pulmonis-PW1004 [1]; rabbit, in vivo): corneal perforations with severe discharges accompanied by behavioral abnormalities
